{
  "source": "the supplement of paper PMC10307832",
  "assay_in_all_cases": "relative viability (nuclei count vs DMSO), 5 days (fraction); higher = more cells survive",
  "key": {"ABC-1": {"tested_on": "ABC-1", "in_short": "(§1)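 Relative viability divides the nuclei count in treated wells by that in vehicle wells. Lung cancer cell lines were seeded in 1536-well plates, dosed by pin tool the next day, and fixed and stained after 5 days in one step with final 0.05% Triton X-100, 1% formaldehyde and 1 ug/ml Hoechst. Dosing was a single drug or a fixed anchor-drug dose plus five library-drug doses (not always all listed) in √10 steps, and values are medians of duplicate plates imaged at 4×.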"}, "CAL-12T": {"tested_on": "CAL-12T", "in_short": "as §1"}, "COR-L23": {"tested_on": "COR-L23", "in_short": "as §1"}, "EMC-BAC-2": {"tested_on": "EMC-BAC-2", "in_short": "as §1"}, "HARA": {"tested_on": "HARA", "in_short": "as §1"}, "HCC-366": {"tested_on": "HCC-366", "in_short": "as §1"}, "HOP-62": {"tested_on": "HOP-62", "in_short": "as §1"}, "LK-2": {"tested_on": "LK-2", "in_short": "as §1"}, "NCI-H1437": {"tested_on": "NCI-H1437", "in_short": "as §1"}, "NCI-H1563": {"tested_on": "NCI-H1563", "in_short": "as §1"}, "NCI-H1650": {"tested_on": "NCI-H1650", "in_short": "as §1"}, "NCI-H1651": {"tested_on": "NCI-H1651", "in_short": "as §1"}, "NCI-H1734": {"tested_on": "NCI-H1734", "in_short": "as §1"}, "NCI-H1755": {"tested_on": "NCI-H1755", "in_short": "as §1"}, "NCI-H2347": {"tested_on": "NCI-H2347", "in_short": "as §1"}, "NCI-H3122": {"tested_on": "NCI-H3122", "in_short": "as §1"}, "NCI-H596": {"tested_on": "NCI-H596", "in_short": "as §1"}, "NCI-H727": {"tested_on": "NCI-H727", "in_short": "as §1"}, "PC-3 [JPC-3]": {"tested_on": "PC-3 [JPC-3]", "in_short": "as §1"}, "RERF-LC-KJ": {"tested_on": "RERF-LC-KJ", "in_short": "as §1"}, "SK-LU-1": {"tested_on": "SK-LU-1", "in_short": "as §1"}, "UMC-11": {"tested_on": "UMC-11", "in_short": "as §1"}},
  "data": [
    {"smiles": "Nc1cccc2c1CN(C1CCC(=O)NC1=O)C2=O", "note": "(centres undefined) [Lenalidomide] + CS(=O)(=O)CCNCc1ccc(-c2ccc3ncnc(Nc4ccc(OCc5cccc(F)c5)c(Cl)c4)c3c2)o1 [Lapatinib] (partner 2 µM)", "values": [
      {"measurement": "relative viability", "setting": "ABC-1; first compound 0.253 µM", "result": 1.13},
      {"measurement": "relative viability", "setting": "ABC-1; first compound 2.53 µM", "result": 1.11},
      {"measurement": "relative viability", "setting": "ABC-1; first compound 8 µM", "result": 1.34},
      {"measurement": "relative viability", "setting": "CAL-12T; first compound 0.253 µM", "result": 0.602},
      {"measurement": "relative viability", "setting": "CAL-12T; first compound 2.53 µM", "result": 0.801},
      {"measurement": "relative viability", "setting": "CAL-12T; first compound 8 µM", "result": 0.403},
      {"measurement": "relative viability", "setting": "COR-L23; first compound 0.253 µM", "result": 1.05},
      {"measurement": "relative viability", "setting": "COR-L23; first compound 0.8 µM", "result": 0.935},
      {"measurement": "relative viability", "setting": "COR-L23; first compound 2.53 µM", "result": 1.29},
      {"measurement": "relative viability", "setting": "COR-L23; first compound 8 µM", "result": 1.2},
      {"measurement": "relative viability", "setting": "EMC-BAC-2; first compound 0.253 µM", "result": 0.921},
      {"measurement": "relative viability", "setting": "EMC-BAC-2; first compound 0.8 µM", "result": 0.825},
      {"measurement": "relative viability", "setting": "EMC-BAC-2; first compound 2.53 µM", "result": 0.905},
      {"measurement": "relative viability", "setting": "EMC-BAC-2; first compound 8 µM", "result": 0.754},
      {"measurement": "relative viability", "setting": "HARA; first compound 0.253 µM", "result": 0.775},
      {"measurement": "relative viability", "setting": "HARA; first compound 0.8 µM", "result": 0.653},
      {"measurement": "relative viability", "setting": "HARA; first compound 2.53 µM", "result": 0.8},
      {"measurement": "relative viability", "setting": "HARA; first compound 8 µM", "result": 0.571},
      {"measurement": "relative viability", "setting": "HCC-366; first compound 0.253 µM", "result": 1.03},
      {"measurement": "relative viability", "setting": "HCC-366; first compound 0.8 µM", "result": 1.1},
      {"measurement": "relative viability", "setting": "HCC-366; first compound 2.53 µM", "result": 1.03},
      {"measurement": "relative viability", "setting": "HCC-366; first compound 8 µM", "result": 1.07},
      {"measurement": "relative viability", "setting": "HOP-62; first compound 0.253 µM", "result": 1},
      {"measurement": "relative viability", "setting": "HOP-62; first compound 0.8 µM", "result": 0.578},
      {"measurement": "relative viability", "setting": "HOP-62; first compound 2.53 µM", "result": 1.26},
      {"measurement": "relative viability", "setting": "HOP-62; first compound 8 µM", "result": 0.924},
      {"measurement": "relative viability", "setting": "LK-2; first compound 0.253 µM", "result": 0.884},
      {"measurement": "relative viability", "setting": "LK-2; first compound 2.53 µM", "result": 0.864},
      {"measurement": "relative viability", "setting": "LK-2; first compound 8 µM", "result": 0.709},
      {"measurement": "relative viability", "setting": "NCI-H1437; first compound 0.253 µM", "result": 0.692},
      {"measurement": "relative viability", "setting": "NCI-H1437; first compound 0.8 µM", "result": 0.758},
      {"measurement": "relative viability", "setting": "NCI-H1437; first compound 2.53 µM", "result": 1.11},
      {"measurement": "relative viability", "setting": "NCI-H1437; first compound 8 µM", "result": 0.914},
      {"measurement": "relative viability", "setting": "NCI-H1563; first compound 0.253 µM", "result": 0.919},
      {"measurement": "relative viability", "setting": "NCI-H1563; first compound 0.8 µM", "result": 0.852},
      {"measurement": "relative viability", "setting": "NCI-H1563; first compound 2.53 µM", "result": 0.979},
      {"measurement": "relative viability", "setting": "NCI-H1563; first compound 8 µM", "result": 0.763},
      {"measurement": "relative viability", "setting": "NCI-H1650; first compound 0.253 µM", "result": 0.75},
      {"measurement": "relative viability", "setting": "NCI-H1650; first compound 0.8 µM", "result": 0.485},
      {"measurement": "relative viability", "setting": "NCI-H1650; first compound 2.53 µM", "result": 0.835},
      {"measurement": "relative viability", "setting": "NCI-H1650; first compound 8 µM", "result": 0.731},
      {"measurement": "relative viability", "setting": "NCI-H1651; first compound 0.253 µM", "result": 0.825},
      {"measurement": "relative viability", "setting": "NCI-H1651; first compound 0.8 µM", "result": 0.867},
      {"measurement": "relative viability", "setting": "NCI-H1651; first compound 2.53 µM", "result": 1.25},
      {"measurement": "relative viability", "setting": "NCI-H1651; first compound 8 µM", "result": 0.88},
      {"measurement": "relative viability", "setting": "NCI-H1734; first compound 0.253 µM", "result": 1.09},
      {"measurement": "relative viability", "setting": "NCI-H1734; first compound 0.8 µM", "result": 1.1},
      {"measurement": "relative viability", "setting": "NCI-H1734; first compound 2.53 µM", "result": 1.18},
      {"measurement": "relative viability", "setting": "NCI-H1734; first compound 8 µM", "result": 0.969},
      {"measurement": "relative viability", "setting": "NCI-H1755; first compound 0.253 µM", "result": 1.02},
      {"measurement": "relative viability", "setting": "NCI-H1755; first compound 0.8 µM", "result": 1},
      {"measurement": "relative viability", "setting": "NCI-H1755; first compound 2.53 µM", "result": 1.04},
      {"measurement": "relative viability", "setting": "NCI-H1755; first compound 8 µM", "result": 0.916},
      {"measurement": "relative viability", "setting": "NCI-H2347; first compound 0.253 µM", "result": 0.928},
      {"measurement": "relative viability", "setting": "NCI-H2347; first compound 0.8 µM", "result": 0.797},
      {"measurement": "relative viability", "setting": "NCI-H2347; first compound 2.53 µM", "result": 0.894},
      {"measurement": "relative viability", "setting": "NCI-H2347; first compound 8 µM", "result": 0.802},
      {"measurement": "relative viability", "setting": "NCI-H3122; first compound 0.253 µM", "result": 1.04},
      {"measurement": "relative viability", "setting": "NCI-H3122; first compound 0.8 µM", "result": 1.03},
      {"measurement": "relative viability", "setting": "NCI-H3122; first compound 2.53 µM", "result": 0.974},
      {"measurement": "relative viability", "setting": "NCI-H3122; first compound 8 µM", "result": 1.13},
      {"measurement": "relative viability", "setting": "NCI-H596; first compound 0.253 µM", "result": 1.14},
      {"measurement": "relative viability", "setting": "NCI-H596; first compound 0.8 µM", "result": 0.919},
      {"measurement": "relative viability", "setting": "NCI-H596; first compound 2.53 µM", "result": 1.1},
      {"measurement": "relative viability", "setting": "NCI-H596; first compound 8 µM", "result": 0.995},
      {"measurement": "relative viability", "setting": "NCI-H727; first compound 0.253 µM", "result": 0.685},
      {"measurement": "relative viability", "setting": "NCI-H727; first compound 2.53 µM", "result": 1},
      {"measurement": "relative viability", "setting": "NCI-H727; first compound 8 µM", "result": 0.781},
      {"measurement": "relative viability", "setting": "PC-3 [JPC-3]; first compound 0.253 µM", "result": 0.515},
      {"measurement": "relative viability", "setting": "PC-3 [JPC-3]; first compound 0.8 µM", "result": 0.377},
      {"measurement": "relative viability", "setting": "PC-3 [JPC-3]; first compound 2.53 µM", "result": 0.496},
      {"measurement": "relative viability", "setting": "PC-3 [JPC-3]; first compound 8 µM", "result": 0.389},
      {"measurement": "relative viability", "setting": "RERF-LC-KJ; first compound 0.253 µM", "result": 0.86},
      {"measurement": "relative viability", "setting": "RERF-LC-KJ; first compound 0.8 µM", "result": 0.778},
      {"measurement": "relative viability", "setting": "RERF-LC-KJ; first compound 2.53 µM", "result": 0.904},
      {"measurement": "relative viability", "setting": "RERF-LC-KJ; first compound 8 µM", "result": 0.757},
      {"measurement": "relative viability", "setting": "SK-LU-1; first compound 0.253 µM", "result": 0.804},
      {"measurement": "relative viability", "setting": "SK-LU-1; first compound 0.8 µM", "result": 0.891},
      {"measurement": "relative viability", "setting": "SK-LU-1; first compound 2.53 µM", "result": 1.11},
      {"measurement": "relative viability", "setting": "SK-LU-1; first compound 8 µM", "result": 0.889},
      {"measurement": "relative viability", "setting": "UMC-11; first compound 0.253 µM", "result": 1.1},
      {"measurement": "relative viability", "setting": "UMC-11; first compound 0.8 µM", "result": 0.803},
      {"measurement": "relative viability", "setting": "UMC-11; first compound 2.53 µM", "result": 1.04},
      {"measurement": "relative viability", "setting": "UMC-11; first compound 8 µM", "result": 0.791}
    ]}
  ]
}
